From patent US9695155B2, “Herbicidal substituted pyrimidinyloxy benzene compounds” (E. I. DU PONT DE NEMOURS AND COMPANY, priority 2013, dated 2017)

How the values were obtained:
Heteranthera limosa = assay: Test B flooded paddy test; format: in vivo; settings: Flood, 250 g ai/ha; 0 to 100 scale where 0 is no effect and 100 is complete control
Method in brief: (§1)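 Plants at 2-leaf stage; pots flooded to 3 cm above soil and compound applied directly into paddy water, depth held throughout. After 13 to 15 days in greenhouse, visual rating versus controls on 0 (no effect) to 100 (complete control) scale.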

giant foxtail [1] = assay: Test A preemergence; format: in vivo, Setaria faberii; settings: for Foxtail, Giant plant response rating: 500 g ai/ha
Method in brief: (§2)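 Compounds in non-phytotoxic solvent with surfactant applied as soil spray preemergence, or postemergence to plants 2-10 cm at one- to two-leaf stage, in loam/sand. After approximately 10 days in greenhouse, injury rated visually versus untreated controls, 0 (no effect) to 100 (complete control).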

morningglory [2] = assay: Test A preemergence; format: in vivo, Ipomoea spp.; settings: for Morningglory plant response rating: 500 g ai/ha
Method in brief: as §2

pigweed [3] = assay: Test A preemergence; format: in vivo, Amaranthus retroflexus; settings: for Pigweed plant response rating: 500 g ai/ha
Method in brief: as §2

rice = assay: Test B flooded paddy test; format: in vivo, Oryza sativa; settings: Flood, 250 g ai/ha; 0 to 100 scale where 0 is no effect and 100 is complete control
Method in brief: as §1

velvetleaf [4] = assay: Test A postemergence; format: in vivo, Abutilon theophrasti
Method in brief: as §2

morningglory [5] = assay: Test A postemergence; format: in vivo, Ipomoea spp.
Method in brief: as §2

wheat [6] = assay: Test A preemergence; format: in vivo, Triticum aestivum; settings: for Wheat plant response rating: 500 g ai/ha
Method in brief: as §2

barnyardgrass [7] = assay: Test A preemergence; format: in vivo, Echinochloa crus-galli; settings: for Barnyardgrass plant response rating: 500 g ai/ha
Method in brief: as §2

barnyardgrass [8] = assay: Test A postemergence; format: in vivo, Echinochloa crus-galli
Method in brief: as §2

large (Lg) crabgrass [9] = assay: Test A postemergence; format: in vivo, Digitaria sanguinalis
Method in brief: as §2

giant foxtail [10] = assay: Test A postemergence; format: in vivo, Setaria faberii
Method in brief: as §2

corn [11] = assay: Test A preemergence; format: in vivo, Zea mays; settings: for Corn plant response rating: 500 g ai/ha
Method in brief: as §2

barnyardgrass [12] = assay: Test B flooded paddy test; format: in vivo, Echinochloa crus-galli; settings: Flood, 250 g ai/ha; 0 to 100 scale where 0 is no effect and 100 is complete control
Method in brief: as §1

pigweed [13] = assay: Test A postemergence; format: in vivo, Amaranthus retroflexus
Method in brief: as §2

wheat [14] = assay: Test A postemergence; format: in vivo, Triticum aestivum
Method in brief: as §2

large (Lg) crabgrass [15] = assay: Test A preemergence; format: in vivo, Digitaria sanguinalis; settings: for Crabgrass, Large plant response rating: 500 g ai/ha
Method in brief: as §2

velvetleaf [16] = assay: Test A preemergence; format: in vivo, Abutilon theophrasti; settings: for Velvetleaf plant response rating: 500 g ai/ha
Method in brief: as §2

sedge, umbrella = assay: Test B flooded paddy test; format: in vivo, Cyperus difformis; settings: Flood, 250 g ai/ha; 0 to 100 scale where 0 is no effect and 100 is complete control
Method in brief: as §1

corn [17] = assay: Test A postemergence; format: in vivo, Zea mays
Method in brief: as §2

[18] = 0 to 100 scale where 0 is no effect and 100 is complete control
[19] = 125 g ai/ha, 0 to 100 scale where 0 is no effect and 100 is complete control
[20] = 500 g ai/ha, 0 to 100 scale where 0 is no effect and 100 is complete control
[21] = 0 to 100 scale, 0 no effect, 100 complete control, approx. 10 days
[22] = 500 g ai/ha, 0 to 100 scale, 0 no effect, 100 complete control

O=Cc1cccc(Oc2ncc(Br)cn2)c1-n1cc(I)cn1 [Compound 183]
0: Plant response rating, Ducksalad (Heteranthera limosa) | Foxtail, Giant plant response rating (0 to 100 scale) (giant foxtail [1]; 125 g ai/ha) | Foxtail, Giant plant response rating (giant foxtail [1]; [18]) | Morningglory plant response rating (0 to 100 scale) (morningglory [2]; 125 g ai/ha) | Morningglory plant response rating (morningglory [2]; [18]) | Plant response rating, Rice (rice) | Morningglory plant response rating (morningglory [5]; [19]) | Plant response rating, Morningglory (morningglory [5]; [20]) | Wheat plant response rating (0 to 100 scale) (wheat [6]; 125 g ai/ha) | Wheat plant response rating (wheat [6]; [18]) | Barnyardgrass plant response rating (0 to 100 scale, 0 is no effect, 100 is complete control) (barnyardgrass [7]; 125 g ai/ha) | Barnyardgrass plant response rating (barnyardgrass [7]; [18]) | Barnyardgrass plant response rating (barnyardgrass [8]; [19]) | Plant response rating, Barnyardgrass (barnyardgrass [8]; [20]) | Crabgrass, Large plant response rating (large (Lg) crabgrass [9]; [19]) | Plant response rating, Crabgrass, Large (large (Lg) crabgrass [9]; [20]) | Foxtail, Giant plant response rating (giant foxtail [10]; [19]) | Plant response rating, Foxtail, Giant (giant foxtail [10]; [20]) | Corn plant response rating (0 to 100 scale) (corn [11]; 125 g ai/ha) | Corn plant response rating (corn [11]; [18]) | Plant response rating, Barnyardgrass (barnyardgrass [12]) | Wheat plant response rating (wheat [14]; [19]) | Plant response rating, Wheat (wheat [14]; [20]) | Crabgrass, Large plant response rating (0 to 100 scale) (large (Lg) crabgrass [15]; 125 g ai/ha) | Crabgrass, Large plant response rating (large (Lg) crabgrass [15]; [18]) | Velvetleaf plant response rating (0 to 100 scale) (velvetleaf [16]; 125 g ai/ha) | Velvetleaf plant response rating (velvetleaf [16]; [18]) | Plant response rating, Sedge, Umbrella (sedge, umbrella) | Corn plant response rating (corn [17]; [19]) | Plant response rating, Corn (corn [17]; [20])
90: Pigweed plant response rating (pigweed [3]; [18])
30: Plant response rating, Velvetleaf (velvetleaf [4]; [20])
20: Pigweed plant response rating (0 to 100 scale) (pigweed [3]; 125 g ai/ha) | Velvetleaf plant response rating (velvetleaf [4]; [19]) | Pigweed plant response rating (pigweed [13]; [19])
50: Plant response rating, Pigweed (pigweed [13]; [20])

Clc1cnc(Oc2ccccc2-n2cnc(Br)n2)nc1 [Compound 46]
20: Plant response rating, Pigweed (pigweed [3]; [19]) | Plant response rating, Morningglory (morningglory [5]; [19]) | Barnyardgrass plant response rating (barnyardgrass [7]; [21]) | Plant response rating, Barnyardgrass (barnyardgrass [8]; [22]) | Plant response rating, Crabgrass, Large (large (Lg) crabgrass [9]; [22]) | Plant response rating, Foxtail, Giant (giant foxtail [10]; [22]) | Plant response rating, Crabgrass, Large (large (Lg) crabgrass [15]; [19])
50: Plant response rating, Morningglory (morningglory [5]; [22])
90: Pigweed plant response rating (pigweed [3]; [21])
100: Crabgrass, Large plant response rating (large (Lg) crabgrass [15]; [21])
40: Plant response rating, Velvetleaf (velvetleaf [4]; [22]) | Plant response rating, Pigweed (pigweed [13]; [19])
0: Plant response rating, Ducksalad (Heteranthera limosa) | Plant response rating, Foxtail, Giant (giant foxtail [1]; [19]) | Plant response rating, Morningglory (morningglory [2]; [19]) | Morningglory plant response rating (morningglory [2]; [21]) | Plant response rating, Rice (rice) | Plant response rating, Velvetleaf (velvetleaf [4]; [19]) | Plant response rating, Wheat (wheat [6]; [19]) | Wheat plant response rating (wheat [6]; [21]) | Plant response rating, Barnyardgrass (barnyardgrass [7]; [19]) | Plant response rating, Barnyardgrass (barnyardgrass [8]; [19]) | Plant response rating, Crabgrass, Large (large (Lg) crabgrass [9]; [19]) | Plant response rating, Foxtail, Giant (giant foxtail [10]; [19]) | Plant response rating, Corn (corn [11]; [19]) | Corn plant response rating (corn [11]; [21]) | Plant response rating, Barnyardgrass (barnyardgrass [12]) | Plant response rating, Wheat (wheat [14]; [19]) | Plant response rating, Wheat (wheat [14]; [22]) | Plant response rating, Velvetleaf (velvetleaf [16]; [19]) | Velvetleaf plant response rating (velvetleaf [16]; [21]) | Plant response rating, Sedge, Umbrella (sedge, umbrella) | Plant response rating, Corn (corn [17]; [19])
30: Plant response rating, Corn (corn [17]; [22])
80: Foxtail, Giant plant response rating (giant foxtail [1]; [21]) | Plant response rating, Pigweed (pigweed [13]; [22])

C#Cc1cnc(Oc2cccc(C#N)c2-n2cc(Br)cn2)nc1 [Compound 215]
90: Pigweed plant response rating (0 to 100 scale) (pigweed [3]; 125 g ai/ha)
80: Plant response rating, Pigweed (pigweed [13]; [20]) | Crabgrass, Large plant response rating (large (Lg) crabgrass [15]; [18])
50: Foxtail, Giant plant response rating (giant foxtail [1]; [18]) | Plant response rating, Velvetleaf (velvetleaf [4]; [20])
70: Pigweed plant response rating (pigweed [13]; [19])
40: Velvetleaf plant response rating (velvetleaf [4]; [19])
100: Pigweed plant response rating (pigweed [3]; [18])
20: Crabgrass, Large plant response rating (0 to 100 scale) (large (Lg) crabgrass [15]; 125 g ai/ha) | Plant response rating, Corn (corn [17]; [20])
0: Plant response rating, Ducksalad (Heteranthera limosa) | Foxtail, Giant plant response rating (0 to 100 scale) (giant foxtail [1]; 125 g ai/ha) | Morningglory plant response rating (0 to 100 scale) (morningglory [2]; 125 g ai/ha) | Morningglory plant response rating (morningglory [2]; [18]) | Plant response rating, Rice (rice) | Wheat plant response rating (0 to 100 scale) (wheat [6]; 125 g ai/ha) | Wheat plant response rating (wheat [6]; [18]) | Barnyardgrass plant response rating (0 to 100 scale, 0 is no effect, 100 is complete control) (barnyardgrass [7]; 125 g ai/ha) | Barnyardgrass plant response rating (barnyardgrass [8]; [19]) | Foxtail, Giant plant response rating (giant foxtail [10]; [19]) | Corn plant response rating (0 to 100 scale) (corn [11]; 125 g ai/ha) | Corn plant response rating (corn [11]; [18]) | Plant response rating, Barnyardgrass (barnyardgrass [12]) | Wheat plant response rating (wheat [14]; [19]) | Plant response rating, Wheat (wheat [14]; [20]) | Velvetleaf plant response rating (0 to 100 scale) (velvetleaf [16]; 125 g ai/ha) | Plant response rating, Sedge, Umbrella (sedge, umbrella) | Corn plant response rating (corn [17]; [19])
30: Plant response rating, Barnyardgrass (barnyardgrass [8]; [20]) | Plant response rating, Crabgrass, Large (large (Lg) crabgrass [9]; [20])
10: Morningglory plant response rating (morningglory [5]; [19]) | Plant response rating, Morningglory (morningglory [5]; [20]) | Barnyardgrass plant response rating (barnyardgrass [7]; [18]) | Crabgrass, Large plant response rating (large (Lg) crabgrass [9]; [19]) | Plant response rating, Foxtail, Giant (giant foxtail [10]; [20]) | Velvetleaf plant response rating (velvetleaf [16]; [18])
